Experimental data as given in ChEMBL document CHEMBL5038651, “Design, Synthesis, and Biological Evaluation of 2-((4-Bisarylmethyl-piperazin-1-yl)methyl)benzonitrile Derivatives as HCV Entry Inhibitors” (J Med Chem, 2022).
Activity calls are given as the source filed them. The rule behind the calls is not given here.

How the values were obtained:
[1] = (§1) Cytotoxicity against human Huh7.5 cells assessed as reduction in cell viability incubated for 96 hrs by MTT assay; assay type: toxicity, cell-based, Huh-7.5; settings: Huh7.5 cells
Hepatitis C virus [2] = test: Antiviral activity against HCV infected in human Huh7.5 cells incubated for 72 hrs by in-cell western assay; assay type: functional, organism-based, Hepacivirus hominis; settings: Huh7.5, 72 h
[3] = Selectivity index, ratio of CC50 for cytotoxicity against human Huh7.5.1 cells to EC50 for antiviral activity against HCV infected in human Huh7.5.1 cells; assay type: toxicity, cell-based
Hepatitis C virus [4] = test: Antiviral activity against HCVcc infected in human Huh7.5 cells assessed as inhibition of viral replication; assay type: functional, organism-based, Hepacivirus hominis
Hepatitis C virus [5] = test: Antiviral activity against HCV infected in human Huh7.5 cells carrying HCV subgenomic replicons assessed as inhibition of viral replication; assay type: functional, organism-based, Hepacivirus hominis
[6] = Cytotoxicity against human Huh7.5 cells infected with HCVcc assessed as reduction in cell viability incubated for 96 hrs by MTT assay; assay type: toxicity, cell-based, Huh-7.5
[7] = Cytotoxicity against human Huh7.5 cells carrying HCV subgenomic replicons assessed as reduction in cell viability incubated for 96 hrs by MTT assay; assay type: toxicity, cell-based, Huh-7.5
[8] = biological target: Histamine H1 receptor (Homo sapiens) (UniProt P35367); test: Antagonist activity against H1 receptor (unknown origin) expressed in HEK cells at 1 uM relative to control; assay type: functional, cell-based
[9] = Selectivity index, ratio of CC50 for cytotoxicity against human Huh7.5 cells infected with HCVcc to EC50 for antiviral activity against HCVcc infected in human Huh7.5 cells; assay type: toxicity, cell-based; settings: read-out: Ratio CC50/EC50
Hepatitis C virus [10] = test: Antiviral activity against HCV infected in human Huh7.5 cells assessed as reduction in HCV core protein expression at 6.4 nM incubated for 72 hrs by in-cell western assay; assay type: functional, organism-based; settings: Hepacivirus hominis
[11] = MRT in Sprague-Dawley rat at 15 mg/kg, po administered as single dose measured upto 24 hrs by LC-MS/MS analysis; assay type: ADME, organism-based; settings: in vivo
[12] = AUC (0 to infinity) in Sprague-Dawley rat at 15 mg/kg, po administered as single dose measured upto 24 hrs by LC-MS/MS analysis; assay type: ADME, organism-based; design: route oral, dose 15 mg/kg, time <=24; settings: in vivo
[13] = Half life in Sprague-Dawley rat at 15 mg/kg, po administered as single dose measured upto 24 hrs by LC-MS/MS analysis; assay type: ADME, organism-based; settings: in vivo
[14] = Tmax in Sprague-Dawley rat at 15 mg/kg, po administered as single dose measured upto 24 hrs by LC-MS/MS analysis; assay type: ADME, organism-based; settings: in vivo
[15] = Cmax in Sprague-Dawley rat at 15 mg/kg, po administered as single dose measured upto 24 hrs by LC-MS/MS analysis; assay type: ADME, organism-based; design: route oral, dose 15 mg/kg, time <=24; settings: in vivo
[16] = Plasma concentration in Sprague-Dawley rat at 15 mg/kg, po administered as single dose measured up to 24 hrs by LC-MS/MS analysis; assay type: ADME, organism-based
Hepacivirus hominis = test: Binding affinity to HCV E1 protein at 12.5 to 200 uM by SPR analysis; settings: dose 12.5-200 µM
Hepatitis C virus [17] = test: Antiviral activity against HCV infected in human Huh7.5 cells assessed as reduction in viral RNA level preincubated for 2 hrs prior to viral infection and measured after 72 hrs by RT-qPCR analysis; assay type: functional, organism-based; settings: Hepacivirus hominis, time 74.0 hrs
Hepatitis C virus [18] = test: Antiviral activity against HCV infected in human Huh7.5 cells assessed as reduction in viral RNA level measured after 72 hrs by RT-qPCR analysis; assay type: functional, organism-based; settings: Hepacivirus hominis
Hepatitis C virus [19] = test: Antiviral activity against HCV infected in human Huh7.5 cells assessed as reduction in HCV core protein expression measured after 72 hrs by Western blotting analysis; assay type: functional, organism-based; settings: Hepacivirus hominis
Hepatitis C virus [20] = test: Antiviral activity against HCV infected in human Huh7.5 cells assessed as reduction in HCV core protein expression preincubated for 2 hrs followed by viral infection and measured after 72 hrs by Western blotting analysis; assay type: functional, organism-based; settings: Hepacivirus hominis, time 74.0 hrs
Hepatitis C virus [21] = test: Antiviral activity against HCV infected in human Huh7.5 cells assessed as reduction in HCV core protein expression pre-infected with virus for 2 hrs followed by compound addition and measured after 72 hrs by Western blotting analysis; assay type: functional, organism-based; settings: Hepacivirus hominis
Hepatitis C virus [22] = test: Antiviral activity against HCV infected in human Huh7.5 cells carrying HCV subgenomic replicons assessed as inhibition of viral replication at 1.4 uM; assay type: functional, organism-based; settings: Hepacivirus hominis
Hepatitis C virus [23] = test: Antiviral activity against HCV infected in human Huh7.5 cells assessed as reduction in viral RNA level pre-infected with virus for 2 hrs followed by compound addition and measured after 72 hrs by RT-qPCR analysis; assay type: functional, organism-based; settings: Hepacivirus hominis
Huh-7.5 = test: as §1; assay type: toxicity, cell-based; settings: huh-7.5, 96 h, 96 h

Chain of Histamine H1 receptor (Homo sapiens) (P35367 whole entry): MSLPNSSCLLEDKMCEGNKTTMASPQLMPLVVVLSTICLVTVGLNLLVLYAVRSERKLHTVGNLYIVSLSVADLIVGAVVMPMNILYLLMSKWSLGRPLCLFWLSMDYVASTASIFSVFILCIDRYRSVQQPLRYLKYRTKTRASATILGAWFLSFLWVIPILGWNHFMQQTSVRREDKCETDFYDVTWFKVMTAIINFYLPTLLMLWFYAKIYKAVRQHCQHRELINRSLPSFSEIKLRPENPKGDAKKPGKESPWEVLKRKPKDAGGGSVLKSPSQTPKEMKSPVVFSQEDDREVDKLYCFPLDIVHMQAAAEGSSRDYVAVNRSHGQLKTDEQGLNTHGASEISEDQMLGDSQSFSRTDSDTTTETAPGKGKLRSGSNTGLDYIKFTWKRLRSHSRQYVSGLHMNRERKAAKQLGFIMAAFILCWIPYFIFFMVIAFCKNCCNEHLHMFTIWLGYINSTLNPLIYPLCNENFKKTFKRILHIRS

In the case of `CN1CCCN(c2ccc(C(F)(F)F)c(CN3CCN(C(c4ccccc4)c4ccc(Cl)cc4)CC3)c2)CC1` (stereo not given), the CC50 at 96 h [1] is reported as 1.29 µM, the EC50 (Hepatitis C virus [2]) is reported as 83 nM and the selectivity ratio ([3]; read-out: Ratio CC50/EC50) is reported as 15.

Compound `CN(C)CCN(C)CCN(C)c1ccc(C#N)c(CN2CCN(C(c3ccccc3)c3ccc(Cl)cc3)CC2)c1` (stereo not given) has a CC50 at 96 h [1] of 6.34 µM, an EC50 (Hepatitis C virus [2]) of 73 nM and a selectivity ratio ([3]; read-out: Ratio CC50/EC50) of 87.

In the case of `CN1CCCN(c2ccc(C#N)c(CN3CCN(Cc4ccccc4)CC3)c2)CC1`, the CC50 at 96 h [1] is reported as > 100 µM and the EC50 (Hepatitis C virus [2]) is reported as 21100 nM.

Compound `CC(c1ccccc1)N1CCN(Cc2cc(N(C)CCN(C)C)ccc2C#N)CC1` (stereo not given) has a CC50 at 96 h [1] of 44.1 µM, an EC50 (Hepatitis C virus [2]) of 1030 nM and a selectivity ratio ([3]; read-out: Ratio CC50/EC50) of 43.

In the case of `CN1CCN(C(c2ccccc2)c2ccc(Cl)cc2)CC1` (stereo not given) [CHLORCYCLIZINE], the EC50 (Hepatitis C virus [4]) is reported as 67.6 nM, the EC50 (Hepatitis C virus [5]) is reported as > 1600 nM and the CC50 at 96 h [6] is reported as 30.8 µM. For the same compound, the CC50 at 96 h [7] was 30.2 µM, the inhibition ([8]; filed as antagonist) was 99% and the selectivity ratio [9] was 456. The Activity (Hepatitis C virus [10]) was “inactive”.

With `CN1CCCN(c2ccc(C#N)c(CN3CCN(C(=O)c4ccc(F)cc4)CC3)c2)CC1` the CC50 at 96 h [1] was 13.8 µM and the EC50 (Hepatitis C virus [2]) was > 4000 nM.

Work on `CN1CCCN(c2ccc(C#N)c(CN3CCN(C(c4ccc(F)cc4)c4ccc(F)cc4)CC3)c2)CC1` yielded an MRT [11] of 9.43 h, a CC50 at 96 h [1] of 6.24 µM and an EC50 (Hepatitis C virus [2]) of 5 nM. The selectivity ratio ([3]; read-out: Ratio CC50/EC50) was 1130, the AUC(0-inf) [12] was 639 ng·h/mL and the EC50 (Hepatitis C virus [4]) was 2.89 nM. For the same compound, the EC50 (Hepatitis C virus [5]) was > 1600 nM, the CC50 at 96 h [6] was 3.31 µM and the CC50 at 96 h [7] was 3.95 µM. It also gave a half-life [13] of 340 min, a Tmax [14] of 2.69 h and a Cmax [15] of 78 ng/mL. For the same compound, the concentration at 24 h [16] was 4.98 ng/mL, the Activity (Hepacivirus hominis) was “Active” and the Activity [8] was “inactive”. The Activity (Hepatitis C virus [17]) was “inactive”, the Activity (Hepatitis C virus [18]) was “inactive” and the Activity (Hepatitis C virus [19]) was “Active”. For the same compound, the Activity (Hepatitis C virus [20]) was “inactive”, the Activity (Hepatitis C virus [21]) was “Active” and the Activity (Hepatitis C virus [22]) was “inactive”. For the same compound, the selectivity ratio [9] was 1140, the Activity (Hepatitis C virus [10]) was “Active” and the Activity (Hepatitis C virus [23]) was “Active”.

Work on `COCCOc1ccc(C#N)c(CN2CCN(c3ccc(C(F)(F)F)cc3)CC2)c1` yielded a CC50 at 96 h [1] of 2.97 µM and an EC50 (Hepatitis C virus [2]) of 1520 nM.

Work on `CC(c1ccccc1)N1CCN(Cc2cc(N3CCCN(C)CC3)ccc2C#N)CC1` (stereo not given) yielded a CC50 at 96 h [1] of 31.3 µM, an EC50 (Hepatitis C virus [2]) of 956 nM and a selectivity ratio ([3]; read-out: Ratio CC50/EC50) of 33.

For `CC(C)OC(=O)[C@H](C)N[P@](=O)(OC[C@H]1O[C@@H](n2ccc(=O)[nH]c2=O)[C@](C)(F)[C@@H]1O)Oc1ccccc1` [SOFOSBUVIR], the CC50 at 96 h [1] was > 200 µM, the EC50 (Hepatitis C virus [2]) was 82 nM and the selectivity ratio ([3]; read-out: Ratio) was > 3280. The selectivity ratio ([3]; read-out: Ratio CC50/EC50) was > 2440, the EC50 (Hepatitis C virus [4]) was 129 nM and the EC50 (Hepatitis C virus [5]) was 180 nM. The CC50 at 96 h [6] was 171 µM, the CC50 at 96 h [7] was 121 µM and the Activity (Hepacivirus hominis) was “inactive”. The selectivity ratio [9] was 1330 and the Activity (Hepatitis C virus [10]) was “inactive”.

In the case of `N#Cc1ccc(NCCCn2ccnc2)cc1CN1CCN(C(c2ccccc2)c2ccccc2)CC1`, the CC50 at 96 h [1] is reported as > 20 µM, the EC50 (Hepatitis C virus [2]) is reported as 243 nM and the selectivity ratio ([3]; read-out: Ratio CC50/EC50) is reported as > 82.

For `CN(C)CCN(C)c1ccc(C#N)c(CN2CCN(C(c3ccccc3)c3ccccc3)CC2)c1`, the CC50 at 96 h [1] was > 20 µM, the EC50 (Hepatitis C virus [2]) was 45 nM and the selectivity ratio ([3]; read-out: Ratio CC50/EC50) was > 444.

Work on `CN1CCCN(c2ccc(C(F)(F)F)c(CN3CCN(C(c4ccc(F)cc4)c4ccc(F)cc4)CC3)c2)CC1` yielded a CC50 at 96 h [1] of 1.45 µM, an EC50 (Hepatitis C virus [2]) of 7 nM and a selectivity ratio ([3]; read-out: Ratio CC50/EC50) of 206.

For `CN(C)CCN(C)c1ccc(C#N)c(CN2CCN(c3ccc(Cl)cc3)CC2)c1`, the CC50 at 96 h [1] was 21.2 µM, the CC50 (Huh-7.5) was > 20 µM and the EC50 (Hepatitis C virus [2]) was 175 nM. The selectivity ratio ([3]; read-out: Ratio) was > 114, the selectivity ratio ([3]; read-out: Ratio CC50/EC50) was > 81 and the EC50 (Hepatitis C virus [4]) was 260 nM. The EC50 (Hepatitis C virus [5]) was > 1600 nM, the CC50 at 96 h [6] was 18.8 µM and the CC50 at 96 h [7] was 121 µM. For the same compound, the Activity (Hepacivirus hominis) was “Active”, the Activity [8] was “inactive” and the selectivity ratio [9] was 72. For the same compound, the Activity (Hepatitis C virus [10]) was “inactive”.

In the case of `CN(C)CCN(C)c1ccc(C#N)c(CN2CCN(Cc3ccc(Cl)cc3)CC2)c1`, the CC50 at 96 h [1] is reported as 18.1 µM, the EC50 (Hepatitis C virus [2]) is reported as 1040 nM and the selectivity ratio ([3]; read-out: Ratio CC50/EC50) is reported as 17.

`N#Cc1ccc(NCCCn2ccnc2)cc1CN1CCN(C(c2ccc(F)cc2)c2ccc(F)cc2)CC1` gave a CC50 at 96 h [1] of 5.89 µM, an EC50 (Hepatitis C virus [2]) of 162 nM and a selectivity ratio ([3]; read-out: Ratio CC50/EC50) of 36.

For `COCCOc1ccc(C#N)c(CN2CCN(C(c3ccc(F)cc3)c3ccc(F)cc3)CC2)c1`, the CC50 at 96 h [1] was 6.45 µM and the EC50 (Hepatitis C virus [2]) was > 20000 nM.
